{
  "source": "patent US10471046B2",
  "about": "“Method for treating, preventing, or reducing the risk of skin infection” (Melinta Subsidiary Corp., priority 2014, dated 2019)",
  "data": [
    {"tested_on": "S. aureus", "experiment": "Minimum inhibitory concentrations (MICs) for S. aureus of exemplary compounds (Table 2)", "format": "cell-based", "conditions": "Staphylococcus aureus, minimum inhibitory concentrations for S. aureus; read-out: MICs", "outline": "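Growth of S. aureus in media with or without compound, by broth microdilution in microtiter trays following NCCLS M7-A5 guidelines. Values are MICs in μg/mL.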", "units": {"MIC": "µg/mL"}, "values": [
      {"smiles": "CC(=O)NC[C@H]1CN(c2ccc(-c3ccc(Cc4nnn[nH]4)cc3)c(F)c2)C(=O)O1", "note": "[Compound 1007, N-{3-[2-Fluoro-4′-(1H-tetrazol-5-(S)-ylmethyl)-biphenyl-4-yl]-2-oxo-oxazolidin-5-(S)-ylmethyl}-acetamide]", "MIC": 8},
      {"smiles": "CC(=O)NC[C@H]1CN(c2ccc(-c3ccc(CNC(=O)c4ccc5cc[nH]c5c4)cc3)c(F)c2)C(=O)O1", "note": "[Compound 4011, 1H-Indole-6-carboxylic acid {4′-[5-(S)-(acetylamino-methyl)-2-oxo-oxazolidin-3-yl]-2′-fluoro-biphenyl-4-ylmethyl}-amide]", "MIC": 1},
      {"smiles": "CC(=O)NC[C@H]1CN(c2ccc(-c3ccc(CNC(=O)COc4ccc(Cl)cc4Cl)cc3)c(F)c2)C(=O)O1", "note": "[Compound 5014, N-{4′-[5-(S)-(Acetylamino-methyl)-2-oxo-oxazolidin-3-yl]-2′-fluoro-biphenyl-4-ylmethyl}-2-(2,4-dichloro-phenoxy)-acetamide]", "MIC": 16},
      {"smiles": "CC(=O)NC[C@H]1CN(c2ccc(-c3ccc(C(=O)NCc4ncsn4)cc3)c(F)c2)C(=O)O1", "note": "[Compound 4225, 4′-[5-(S)-(Acetylamino-methyl)-2-oxo-oxazolidin-3-yl]-2′-fluoro-biphenyl-4-carboxylic acid ([1,2,4]thiadiazol-3-ylmethyl)-amide]", "MIC": 1},
      {"smiles": "CC(=O)NC[C@H]1CN(c2ccc(-c3ccc(C[S+]([O-])Cc4ccccn4)cc3)c(F)c2)C(=O)O1", "note": "(stereo partly drawn) [Compound 4217, N-{3-[2-Fluoro-4′-(pyridin-2-ylmethanesulfinylmethyl)-biphenyl-4-yl]-2-oxo-oxazolidin-5-(S)-ylmethyl}-acetamide]", "MIC": 1},
      {"smiles": "CC(=O)NC[C@H]1CN(c2ccc(-c3ccc(CNC(=O)C4CCC(=O)N4)cc3)c(F)c2)C(=O)O1", "note": "(stereo partly drawn) [Compound 4289, 5-Oxo-pyrrolidine-2-carboxylic acid {4′-[5-(S)-(acetylamino-methyl)-2-oxo-oxazolidin-3-yl]-2′-fluoro-biphenyl-4-ylmethyl}-amide]", "MIC": 8},
      {"smiles": "CC(=O)NC[C@H]1CN(c2ccc(-c3ccc(CNCC4OCCO4)cc3)c(F)c2)C(=O)O1", "note": "[Compound 4209, N-[3-(4′-{[([1,3]Dioxolan-2-ylmethyl)-amino]-methyl}-2-fluoro-biphenyl-4-yl)-2-oxo-oxazolidin-5-(S)-ylmethyl]-acetamide]", "MIC": 0.5},
      {"smiles": "CC(=O)NC[C@H]1CN(c2ccc(-c3ccc(CN4CCN(CC#N)CC4)cc3)c(F)c2)C(=O)O1", "note": "[Compound 1004, N-{3-[4′-(4-Cyanomethyl-piperazin-1-ylmethyl)-2-fluoro-biphenyl-4-yl]-2-oxo-oxazolidin-5-(S)-ylmethyl}-acetamide]", "MIC": 2},
      {"smiles": "CC(=O)NC[C@H]1CN(c2ccc(-c3ccc(CNCC4CO4)cc3)c(F)c2)C(=O)O1", "note": "(stereo partly drawn) [Compound 4210, N-(3-{2-Fluoro-4′-[(oxiranylmethyl-amino)-methyl]-biphenyl-4-yl}-2-oxo-oxazolidin-5-(S)-ylmethyl)-acetamide]", "MIC": 4},
      {"smiles": "CC(=O)NC[C@H]1CN(c2ccc(-c3ccc(CSc4nnc(N)[nH]4)cc3)c(F)c2)C(=O)O1", "note": "[Compound 2028, N-{3-[4′-(5-Amino-4H-[1,2,4]triazol-3-ylsulfanylmethyl)-2-fluoro-biphenyl-4-yl]-2-oxo-oxazolidin-5-(S)-ylmethyl}-acetamide]", "MIC": 0.25},
      {"smiles": "CC(=O)NC[C@H]1CN(c2ccc(-c3ccc(CNC(=O)[C@@H]4C[C@@H](O)CN4)cc3)c(F)c2)C(=O)O1", "note": "[Compound 4301, 4-(R)-Hydroxy-pyrrolidine-2-(S)-carboxylicacid {4′-[5-(S)-(acetylamino-methyl)-2-oxo-oxazolidin-3-yl]-2′-fluoro-biphenyl-4-ylmethyl}-amide]", "MIC": 8},
      {"smiles": "CC(=O)NC[C@H]1CN(c2ccc(-c3ccc(Cn4cccn4)nc3)c(F)c2)C(=O)O1", "note": "[Compound 1076, N-{3-[3-Fluoro-4-(6-pyrazol-1-ylmethyl-pyridin-3-yl)-phenyl]-2-oxo-oxazolidin-5-(S)-ylmethyl}-acetamide]", "MIC": 1},
      {"smiles": "CC(=O)NC[C@H]1CN(c2ccc(-c3ccc(CNCC(O)c4ccc(F)cc4)cc3)c(F)c2)C(=O)O1", "note": "(mixture of isomers) [Compound 4275, N-[3-(2-Fluoro-4′-{[2-(4-fluoro-phenyl)-2-(R/S)-hydroxy-ethylamino]-methyl}-biphenyl-4-yl)-2-oxo-oxazolidin-5-(S)-ylmethyl]-acetamide]", "MIC": 0.5},
      {"smiles": "CC(=O)NC[C@H]1CN(c2ccc(-c3ccc(CN4CCCC(F)(F)C4)cc3)c(F)c2)C(=O)O1", "note": "[Compound 1097, N-{3-[4′-(3,3-Difluoro-piperidin-1-ylmethyl)-2-fluoro-biphenyl-4-yl]-2-oxo-oxazolidin-5-(S)-ylmethyl}-acetamide]", "MIC": 2},
      {"smiles": "CC(=O)NC[C@H]1CN(c2ccc(-c3ccc(CSc4ccccn4)cc3)c(F)c2)C(=O)O1", "note": "[Compound 2018, N-{3-[2-Fluoro-4′-(pyridin-2-ylsulfanylmethyl)-biphenyl-4-yl]-2-oxo-oxazolidin-5-(S)-ylmethyl}-acetamide]", "MIC": 0.25},
      {"smiles": "CC(=O)NC[C@H]1CN(c2ccc(-c3ccc(CNCc4ccsc4)cc3)c(F)c2)C(=O)O1", "note": "[Compound 4086, N-[3-(2-Fluoro-4′-{[(thiophen-3-ylmethyl)-amino]-methyl}-biphenyl-4-yl)-2-oxo-oxazolidin-5-(S)-ylmethyl]-acetamide]", "MIC": 4},
      {"smiles": "CSCCN(Cc1ccccc1)C[C@@H](O)c1ccc(-c2ccc(N3C[C@H](CNC(C)=O)OC3=O)cc2F)cc1", "note": "[Compound 4248, N-[3-(4′-{2-[Benzyl-(2-methylsulfanyl-ethyl)-amino]-1-(S)-hydroxy-ethyl}-2-fluoro-biphenyl-4-yl)-2-oxo-oxazolidin-5-(S)-ylmethyl]-acetamide]", "MIC": 4},
      {"smiles": "CC(=O)NC[C@H]1CN(c2ccc(-c3ccc(CCn4ccnn4)cc3)c(F)c2)C(=O)O1", "note": "[Compound 1001, N-{3-[2-Fluoro-4′-(2-[1,2,3]triazol-1-yl-ethyl)-biphenyl-4-yl]-2-oxo-oxazolidin-5-(S)-ylmethyl}-acetamide]", "MIC": 2},
      {"smiles": "CC(=O)NC[C@H]1CN(c2ccc(-c3ccc(CNCc4cocn4)cc3)c(F)c2)C(=O)O1", "note": "[Compound 4234, N-[3-(2-Fluoro-4′-{[(oxazol-4-ylmethyl)-amino]-methyl}-biphenyl-4-yl)-2-oxo-oxazolidin-5-(S)-ylmethyl]-acetamide]", "MIC": 2},
      {"smiles": "CC(=O)NC[C@H]1CN(c2ccc(-c3ccc(CNCc4cc(-c5ccccc5)oc4C)cc3)c(F)c2)C(=O)O1", "note": "[Compound 4130, N-[3-(2-Fluoro-4′-{[(2-methyl-5-phenyl-furan-3-ylmethyl)-amino]-methyl}-biphenyl-4-yl)-2-oxo-oxazolidin-5-(S)-ylmethyl]-acetamide]", "MIC": 2},
      {"smiles": "CC(=O)NC[C@H]1CN(c2ccc(-c3ccc(CNCc4ccncc4)nc3)c(F)c2)C(=O)O1", "note": "[Compound 4073, N-{3-[3-Fluoro-4-(6-{[(pyridin-4-ylmethyl)-amino]-methyl}-pyridin-3-yl)-phenyl]-2-oxo-oxazolidin-5-(S)-ylmethyl}-acetamide]", "MIC": 2},
      {"smiles": "CC(=O)NC[C@H]1CN(c2ccc(-c3ccc(CNC(=O)/C=C/c4cncnc4)cc3)c(F)c2)C(=O)O1", "note": "[Compound 4006, N-{4′-[5-(S)-(Acetylamino-methyl)-2-oxo-oxazolidin-3-yl]-2′-fluoro-biphenyl-4-ylmethyl}-3-pyrimidin-5-yl-acrylamide]", "MIC": 8}
    ]}
  ]
}
